Data: publication PMC12040169 (PLOS Biology, 2025)

Test: in vitro
Conditions: human, hela cells, % viability

Going from COc1ccc2cc(/C=C(\C#N)c3nc(-c4cc5ccccc5oc4=O)cs3)c(Cl)nc2c1 [CBK261623] to CCOc1cc(OCC)cc(C(=O)Nc2ccc(-c3nc4ncccc4o3)cc2)c1 [CBK263440], the viability at 28.5 h, 10 µM rises from 93.9% to 96.8%.

First: NC(=O)CN1CCCN(c2nccc(OCC3COc4ccccc4O3)n2)CC1 (centres unmarked) [CBK084041]
Second: CCN1CCN(C(=O)c2ccc3ccccc3n2)CC1 [CBK200249]
The viability at 28.5 h, 10 µM of the first is lower: 115% for the first, 133% for the second.

Going from Cc1cc(Cn2nnc(-c3cccnc3)n2)cc(C)c1O [CBK291130] to COc1nc(-c2cccnc2)cn2ccnc12 [CBK093490], the viability at 28.5 h, 10 µM falls from 113% to 82.1%.

CCCc1c(C)nc2c(OC)cccc2c1SCCC(=O)O [CBK263890] and CCOC(=O)Cn1nc(CC)c(Cc2c(Cl)cccc2Cl)c1C [CBK113222] are the same in viability at 28.5 h, 10 µM: 122% for the first, 122% for the second.

First: Nc1cccc(-c2nc(-c3cncnc3)cnc2N)c1 [CBK063907]
Second: CCOC(=O)c1cc2c(CNc3ccc(OC)nc3)cccc2o1 [CBK006086]
The viability at 28.5 h, 10 µM of the first is higher: 102% for the first, 91.7% for the second.

First: O=C(NC(Cc1ccccc1)N1C(=O)c2ccccc2C1=O)N1CCCc2ccccc21 (centres unmarked) [CBK265551]
Second: O=c1c2ccccc2nc2n1CCN(Cc1ccccc1)CC2 [CBK284790]
The viability at 28.5 h, 10 µM of the first is higher: 111% for the first, 90.2% for the second.

Going from Cc1nnc(Sc2cccc(C(F)(F)F)n2)s1 [CBK115222] to Cc1nc(C(F)(F)F)ccc1C(=O)N(C)CCN1CCCCC1 [CBK281917], the viability at 28.5 h, 10 µM falls from 95.4% to 87.3%.

Compared with O=C(O)CCC(CCC(=O)O)([N+](=O)[O-])[N+](=O)[O-] [CBK260956], CCc1ccc(S(=O)(=O)Nc2ccc(O)c(C(=O)O)c2)cc1 [CBK299827] is lower in viability at 28.5 h, 10 µM: 93.9% for the first, 90.7% for the second.

Compared with CC(C)Sc1nnc(N2C(N)=C(C#N)C(c3cccs3)C3=C2CCCC3=O)s1 (centres unmarked) [CBK293989], O=c1[nH]nc2c3c4c(sc3ncn12)CCCC4 [CBK284235] is lower in viability at 28.5 h, 10 µM: 82.8% for the first, 56.8% for the second.

First: CN(Cc1ccc2c(c1)OCCO2)C(=O)CSc1n[nH]c(=O)n1Cc1ccccc1 [CBK297876]
Second: CC(C)c1ccc(/C=C/C(=O)NCc2ccccc2)cc1 [CBK149635]
The viability at 28.5 h, 10 µM of the first is lower: 82.1% for the first, 112% for the second.

First: CCNC(=O)c1cc2c(=O)n3ccccc3nc2n1C [CBK287556]
Second: CCC(Oc1ccccc1)C(=O)Nc1cc(C)on1 (centres unmarked) [CBK288152]
The viability at 28.5 h, 10 µM of the first is higher: 104% for the first, 101% for the second.

Going from CC1=NN(c2ccc([N+](=O)[O-])cc2)C(=O)/C1=C\NCCc1ccc(S(N)(=O)=O)cc1 [CBK263006] to CC(=O)Nc1ccc(S(=O)(=O)N2CCN(c3ccc([N+](=O)[O-])c(NC4C5CC6CC(C5)CC4C6)c3)CC2)cc1 (centres unmarked) [CBK268802], the viability at 28.5 h, 10 µM falls from 92.6% to 90.5%.

First: CCc1c(C(=O)NCCn2ccnc2C)[nH]c2ccc(F)cc12 [CBK283314]
Second: Cc1nccn1Cc1ccccc1C(=O)NCCn1ccnc1 [CBK281580]
The viability at 28.5 h, 10 µM of the first is higher: 92.9% for the first, 84.7% for the second.

First: CC(C)Cn1c(=O)[nH]c2ncc(-c3ccc(C(=O)NC4CCCC4)cc3)nc21 [CBK064551]
Second: CCOC(=O)c1c(NC(=O)c2cc(-c3ccc(C)c(C)c3)nc3ccccc23)sc2c1CCC(C)C2 (centres unmarked) [CBK262627]
The viability at 28.5 h, 10 µM of the first is higher: 108% for the first, 96.4% for the second.

Compared with CC(C)Nc1cncc(OCCCN(C)C)n1 [CBK115600], CCOCCc1nsc(NS(=O)(=O)c2cccc(Cl)c2C)n1 [CBK034245] is lower in viability at 28.5 h, 10 µM: 105% for the first, 102% for the second.

Going from c1ccc(CCNc2nc(-c3cccnc3)nc3ccccc23)cc1 [CBK263672] to Clc1ccc(COc2cc(N3CCCN(Cc4ccccc4-c4ccccc4)CC3)ncn2)cc1Cl [CBK083781T], the viability at 28.5 h, 10 µM falls from 105% to 98.4%.

Going from CC(C)(C)c1cc(C(=O)O)[nH]n1 [CBK260874] to CCOc1ccc(C(C)(N)C(=O)O)cc1 (centres unmarked) [CBK261362], the viability at 28.5 h, 10 µM rises from 103% to 121%.

First: Cc1cccc(NC(=O)CSc2ncnc3sc4c(c23)CCC(C)C4)c1 (centres unmarked) [CBK265738]
Second: CCOc1cccc(-c2ccc(Nc3cccc(NC(=O)c4ccncc4)c3)nc2)c1 [CBK037739]
The viability at 28.5 h, 10 µM of the first is higher: 102% for the first, 49.4% for the second.

Going from CC(=O)NC(c1nccs1)C1CCN(C(=O)C(C)(C)C)CC1 (centres unmarked) [CBK284677] to CC(=O)N1CCN(C(=O)NC(C)C)C[C@@H]1C(=O)N[C@@H](CC1CCCCC1)C(N)=O [CBK289633], the viability at 28.5 h, 10 µM rises from 88.9% to 91.8%.

First: Cc1ccn(CCNCc2cc(-c3ccc(Cl)cc3)c[nH]c2=O)n1 [CBK284727]
Second: Clc1ccc(-c2c[nH]cn2)cc1 [CBK027542]
The viability at 28.5 h, 10 µM of the first is lower: 88.4% for the first, 111% for the second.

First: COc1ccc(Oc2coc3c(CN(C)C)c(O)ccc3c2=O)cc1 [CBK263653]
Second: COc1cccc(C2CC(=O)c3c(ccc4ccccc34)N2)c1OC (centres unmarked) [CBK262971]
The viability at 28.5 h, 10 µM of the first is higher: 95.7% for the first, 94.1% for the second.

Going from CC(=O)c1ccc(-c2nc(NC(=O)c3cccs3)cnc2-c2ccc(F)cc2)s1 [CBK037558] to CN1CCN(C(=O)c2ccsc2NS(=O)(=O)c2ccc(-c3ccccc3)cc2)CC1 [CBK042274], the viability at 28.5 h, 10 µM rises from 81.8% to 103%.

Going from COc1ccc(CN2CCN(c3nccnc3OC3CCCCC3)CC2)cc1 [CBK082830T] to CCn1cc(CN2CCCCCC2c2cc(C)on2)c(C)n1 (centres unmarked) [CBK282140], the viability at 28.5 h, 10 µM falls from 115% to 80.7%.

Compared with O=C(N[C@H]1CCN2C(=O)c3cc(Br)ccc3NC(=O)[C@H]12)c1cccc(F)c1 [CBK289334], O=C(Nc1nc2ccccc2[nH]1)c1ccc(N2CCCS2(=O)=O)cc1 [CBK304582] is higher in viability at 28.5 h, 10 µM: 82.3% for the first, 98.6% for the second.

First: COc1ccc2c(c1)C(O)C(NCc1ccccc1)C2 (centres unmarked) [CBK015469C]
Second: COc1cc(C(C[N+](=O)[O-])c2c(C)[nH]c3ccccc23)ccc1O (centres unmarked) [CBK115317]
The viability at 28.5 h, 10 µM of the first is higher: 104% for the first, 82.9% for the second.

Going from CCn1c(SCC(=O)N2CCCC2)nc2cc(C)[nH]c2c1=O [CBK288027] to CCn1cc(C(=O)N2CCn3cc(C(F)(F)F)nc3C2)c(C)n1 [CBK283916], the viability at 28.5 h, 10 µM falls from 99.9% to 93.8%.

Going from CCC(CC)C(=O)N1CCn2c(nnc2-c2cncc(Br)c2)C1 [CBK304409] to O=C(CSCc1ccc(Br)cc1)NCC1CCCO1 (centres unmarked) [CBK268506], the viability at 28.5 h, 10 µM falls from 96.1% to 87.3%.

First: CC(C)C1OC(NCCN2CCOCC2)=NC1=O (centres unmarked) [CBK074097T]
Second: CCCC/C=C/c1cnc2[nH]c(=O)n(C3CCOCC3)c2n1 [CBK064253]
The viability at 28.5 h, 10 µM of the first is lower: 91% for the first, 98.1% for the second.

Going from CC(O)CNc1nccnc1-c1cccc(CO)c1 (centres unmarked) [CBK037056] to c1ccc(CNc2nccn3ccnc23)nc1 [CBK037526], the viability at 28.5 h, 10 µM rises from 91.5% to 104%.

First: O=c1n(C(c2ccccc2)c2ccccc2)ccn1S(=O)(=O)c1ccc(Oc2ccccc2)cc1 [CBK106624]
Second: CN(C)S(=O)(=O)N(CC(=O)NCc1ccncc1)c1ccccc1 [CBK268322]
The viability at 28.5 h, 10 µM of the first is lower: 89.5% for the first, 111% for the second.

Going from COCCN1CC(CNC(=O)c2cccc(F)c2O)CC1=O (centres unmarked) [CBK304386] to O=C(NCc1ccccc1)C(=O)NNC(=O)C12CC3CC(CC(C3)C1)C2 [CBK262951], the viability at 28.5 h, 10 µM falls from 107% to 94.9%.

Going from CCN1CC2(CCNCC2)c2ccccc21 [CBK116520] to COc1ncc(-c2nccnc2OCCc2c[nH]c3ccccc23)c(OC)n1 [CBK106743], the viability at 28.5 h, 10 µM falls from 90.4% to 79.2%.

Same assay, conditions: human, hela cells, % viability, bulk resorufin, single well

Compound COc1ccc(N2C(=O)/C(=C/c3ccc(-c4cc(C(=O)O)ccc4Cl)o3)C(=O)NC2=S)cc1 [CBK263750] has a viability at 28.5 h, 10 µM of 97.8%.
